{"source": "PubChem BioAssay AID1963853", "about": "(Molecular Pharmacology Branch, DTP, NCI, 2024);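 also: spheroids exposed to compounds for seven days before readout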", "tested_on": "266295-075-R-J1-PDC spheroid viability", "test": "Anticancer human tumor 266295-075-R-J1-PDC patient-derived head and neck squamous carcinoma cell line growth inhibition [POLQ]", "details": "spheroids with HUVEC and MSC; for IC50: curve of first compound; for viability, T/C: stronger effect = lower value", "outline": "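Patient-derived tumour cells were co-cultured with HUVEC and mesenchymal stem cells as multicellular spheroids at 37 °C. They were treated with POLQ inhibitors (novobiocin, ART-558, RP6685) alone or combined with other agents. Top concentrations were at or near clinical Cmax (otherwise 10 microM; SN-38 at 1 microM), decreasing in half-log steps.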", "key": {"[1]": {"details": "second compound 0.0316 µM, first compound 0.0316 µM"}, "[2]": {"details": "second compound 0.0316 µM, first compound 0.1 µM"}, "[3]": {"details": "second compound 0.0316 µM, first compound 0.316 µM"}, "[4]": {"details": "second compound 0.0316 µM, first compound 1 µM"}, "[5]": {"details": "second compound 0.1 µM, first compound 0.0316 µM"}, "[6]": {"details": "second compound 0.1 µM, first compound 0.1 µM"}, "[7]": {"details": "second compound 0.1 µM, first compound 0.316 µM"}, "[8]": {"details": "second compound 0.1 µM, first compound 1 µM"}, "[9]": {"details": "second compound 0.316 µM, first compound 0.0316 µM"}, "[10]": {"details": "second compound 0.316 µM, first compound 0.1 µM"}, "[11]": {"details": "second compound 0.316 µM, first compound 0.316 µM"}, "[12]": {"details": "second compound 0.316 µM, first compound 1 µM"}, "[13]": {"details": "second compound 1 µM, first compound 0.0316 µM"}, "[14]": {"details": "second compound 1 µM, first compound 0.1 µM"}, "[15]": {"details": "second compound 1 µM, first compound 0.316 µM"}, "[16]": {"details": "second compound 1 µM, first compound 1 µM"}, "[17]": {"details": "second compound 3.16 µM, first compound 0.0316 µM"}, "[18]": {"details": "second compound 3.16 µM, first compound 0.1 µM"}, "[19]": {"details": "second compound 3.16 µM, first compound 0.316 µM"}, "[20]": {"details": "second compound 3.16 µM, first compound 1 µM"}, "[21]": {"details": "second compound 10 µM, first compound 0.0316 µM"}, "[22]": {"details": "second compound 10 µM, first compound 0.1 µM"}, "[23]": {"details": "second compound 10 µM, first compound 0.316 µM"}, "[24]": {"details": "second compound 10 µM, first compound 1 µM"}}}
{"smiles": "CNCc1ccc(-c2[nH]c3cc(F)cc4c3c2CCNC4=O)cc1", "note": "+ Cc1cccc(N(C)C(=O)C2C(O)CCN2c2nc(C)cc(C(F)(F)F)c2C#N)c1", "values": [{"measurement": "IC50", "setting": "second compound 0.0316 µM", "result": "> 10000", "unit": "nM"}, {"measurement": "IC50", "setting": "second compound 0.1 µM", "result": "> 10000", "unit": "nM"}, {"measurement": "IC50", "setting": "second compound 0.316 µM", "result": "> 10000", "unit": "nM"}, {"measurement": "IC50", "setting": "second compound 1 µM", "result": "> 10000", "unit": "nM"}, {"measurement": "IC50", "setting": "second compound 3.16 µM", "result": "> 10000", "unit": "nM"}, {"measurement": "IC50", "setting": "second compound 10 µM", "result": "> 10000", "unit": "nM"}, {"measurement": "viability, T/C", "setting": "[1]", "result": 87.1, "unit": "%"}, {"measurement": "viability, T/C", "setting": "[2]", "result": 117, "unit": "%"}, {"measurement": "viability, T/C", "setting": "[3]", "result": 87.5, "unit": "%"}, {"measurement": "viability, T/C", "setting": "[4]", "result": 105, "unit": "%"}, {"measurement": "viability, T/C", "setting": "second compound 0.0316 µM, first compound 3.16 µM", "result": 107, "unit": "%"}, {"measurement": "viability, T/C", "setting": "second compound 0.0316 µM, first compound 10 µM", "result": 102, "unit": "%"}, {"measurement": "viability, T/C", "setting": "[5]", "result": 95.4, "unit": "%"}, {"measurement": "viability, T/C", "setting": "[6]", "result": 99.8, "unit": "%"}, {"measurement": "viability, T/C", "setting": "[7]", "result": 88.2, "unit": "%"}, {"measurement": "viability, T/C", "setting": "[8]", "result": 84.2, "unit": "%"}, {"measurement": "viability, T/C", "setting": "second compound 0.1 µM, first compound 3.16 µM", "result": 126, "unit": "%"}, {"measurement": "viability, T/C", "setting": "second compound 0.1 µM, first compound 10 µM", "result": 128, "unit": "%"}, {"measurement": "viability, T/C", "setting": "[9]", "result": 104, "unit": "%"}, {"measurement": "viability, T/C", "setting": "[10]", "result": 111, "unit": "%"}, {"measurement": "viability, T/C", "setting": "[11]", "result": 104, "unit": "%"}, {"measurement": "viability, T/C", "setting": "[12]", "result": 99.1, "unit": "%"}, {"measurement": "viability, T/C", "setting": "second compound 0.316 µM, first compound 3.16 µM", "result": 98.3, "unit": "%"}, {"measurement": "viability, T/C", "setting": "second compound 0.316 µM, first compound 10 µM", "result": 112, "unit": "%"}, {"measurement": "viability, T/C", "setting": "[13]", "result": 102, "unit": "%"}, {"measurement": "viability, T/C", "setting": "[14]", "result": 102, "unit": "%"}, {"measurement": "viability, T/C", "setting": "[15]", "result": 99.9, "unit": "%"}, {"measurement": "viability, T/C", "setting": "[16]", "result": 93.6, "unit": "%"}, {"measurement": "viability, T/C", "setting": "second compound 1 µM, first compound 3.16 µM", "result": 110, "unit": "%"}, {"measurement": "viability, T/C", "setting": "second compound 1 µM, first compound 10 µM", "result": 123, "unit": "%"}, {"measurement": "viability, T/C", "setting": "[17]", "result": 105, "unit": "%"}, {"measurement": "viability, T/C", "setting": "[18]", "result": 88.7, "unit": "%"}, {"measurement": "viability, T/C", "setting": "[19]", "result": 101, "unit": "%"}, {"measurement": "viability, T/C", "setting": "[20]", "result": 102, "unit": "%"}, {"measurement": "viability, T/C", "setting": "second compound 3.16 µM, first compound 3.16 µM", "result": 112, "unit": "%"}, {"measurement": "viability, T/C", "setting": "second compound 3.16 µM, first compound 10 µM", "result": 115, "unit": "%"}, {"measurement": "viability, T/C", "setting": "[21]", "result": 90.1, "unit": "%"}, {"measurement": "viability, T/C", "setting": "[22]", "result": 115, "unit": "%"}, {"measurement": "viability, T/C", "setting": "[23]", "result": 113, "unit": "%"}, {"measurement": "viability, T/C", "setting": "[24]", "result": 126, "unit": "%"}, {"measurement": "viability, T/C", "setting": "second compound 10 µM, first compound 3.16 µM", "result": 107, "unit": "%"}, {"measurement": "viability, T/C", "setting": "second compound 10 µM, first compound 10 µM", "result": 106, "unit": "%"}]}
{"smiles": "COc1cccc(OCCCN)c1-c1cc(Nc2cnc(C#N)cn2)n[nH]1", "note": "+ Cc1cccc(N(C)C(=O)C2C(O)CCN2c2nc(C)cc(C(F)(F)F)c2C#N)c1", "values": [{"measurement": "IC50", "setting": "second compound 0.0316 µM", "result": "> 1000", "unit": "nM"}, {"measurement": "IC50", "setting": "second compound 0.1 µM", "result": "> 1000", "unit": "nM"}, {"measurement": "IC50", "setting": "second compound 0.316 µM", "result": "> 1000", "unit": "nM"}, {"measurement": "IC50", "setting": "second compound 1 µM", "result": 985, "unit": "nM"}, {"measurement": "IC50", "setting": "second compound 3.16 µM", "result": "> 1000", "unit": "nM"}, {"measurement": "IC50", "setting": "second compound 10 µM", "result": "> 1000", "unit": "nM"}, {"measurement": "viability, T/C", "setting": "second compound 0.0316 µM, first compound 0.00316 µM", "result": 128, "unit": "%"}, {"measurement": "viability, T/C", "setting": "second compound 0.0316 µM, first compound 0.01 µM", "result": 127, "unit": "%"}, {"measurement": "viability, T/C", "setting": "[1]", "result": 87.2, "unit": "%"}, {"measurement": "viability, T/C", "setting": "[2]", "result": 80, "unit": "%"}, {"measurement": "viability, T/C", "setting": "[3]", "result": 81.7, "unit": "%"}, {"measurement": "viability, T/C", "setting": "[4]", "result": 72, "unit": "%"}, {"measurement": "viability, T/C", "setting": "second compound 0.1 µM, first compound 0.00316 µM", "result": 101, "unit": "%"}, {"measurement": "viability, T/C", "setting": "second compound 0.1 µM, first compound 0.01 µM", "result": 101, "unit": "%"}, {"measurement": "viability, T/C", "setting": "[5]", "result": 83.3, "unit": "%"}, {"measurement": "viability, T/C", "setting": "[6]", "result": 76.3, "unit": "%"}, {"measurement": "viability, T/C", "setting": "[7]", "result": 79.1, "unit": "%"}, {"measurement": "viability, T/C", "setting": "[8]", "result": 62, "unit": "%"}, {"measurement": "viability, T/C", "setting": "second compound 0.316 µM, first compound 0.00316 µM", "result": 109, "unit": "%"}, {"measurement": "viability, T/C", "setting": "second compound 0.316 µM, first compound 0.01 µM", "result": 90.7, "unit": "%"}, {"measurement": "viability, T/C", "setting": "[9]", "result": 68, "unit": "%"}, {"measurement": "viability, T/C", "setting": "[10]", "result": 71.1, "unit": "%"}, {"measurement": "viability, T/C", "setting": "[11]", "result": 72.1, "unit": "%"}, {"measurement": "viability, T/C", "setting": "[12]", "result": 63.9, "unit": "%"}, {"measurement": "viability, T/C", "setting": "second compound 1 µM, first compound 0.00316 µM", "result": 127, "unit": "%"}, {"measurement": "viability, T/C", "setting": "second compound 1 µM, first compound 0.01 µM", "result": 85.5, "unit": "%"}, {"measurement": "viability, T/C", "setting": "[13]", "result": 89.8, "unit": "%"}, {"measurement": "viability, T/C", "setting": "[14]", "result": 75.1, "unit": "%"}, {"measurement": "viability, T/C", "setting": "[15]", "result": 66.7, "unit": "%"}, {"measurement": "viability, T/C", "setting": "[16]", "result": 50.1, "unit": "%"}, {"measurement": "viability, T/C", "setting": "second compound 3.16 µM, first compound 0.00316 µM", "result": 106, "unit": "%"}, {"measurement": "viability, T/C", "setting": "second compound 3.16 µM, first compound 0.01 µM", "result": 101, "unit": "%"}, {"measurement": "viability, T/C", "setting": "[17]", "result": 77.7, "unit": "%"}, {"measurement": "viability, T/C", "setting": "[18]", "result": 77.7, "unit": "%"}, {"measurement": "viability, T/C", "setting": "[19]", "result": 75.2, "unit": "%"}, {"measurement": "viability, T/C", "setting": "[20]", "result": 64.8, "unit": "%"}, {"measurement": "viability, T/C", "setting": "second compound 10 µM, first compound 0.00316 µM", "result": 107, "unit": "%"}, {"measurement": "viability, T/C", "setting": "second compound 10 µM, first compound 0.01 µM", "result": 108, "unit": "%"}, {"measurement": "viability, T/C", "setting": "[21]", "result": 81.5, "unit": "%"}, {"measurement": "viability, T/C", "setting": "[22]", "result": 74.3, "unit": "%"}, {"measurement": "viability, T/C", "setting": "[23]", "result": 58.5, "unit": "%"}, {"measurement": "viability, T/C", "setting": "[24]", "result": 75.3, "unit": "%"}]}
